Laboratory results as given in patent publication US12391679B2, “Benzamide-substituted bicyclic imidazo- and pyrazolo-fused -pyridine, -pyrimide, and -pyridazine compounds for treatment of inflammatory diseases” (ONCO3R Therapeutics BV, priority 2019, dated 2025).

Key:
SIK3 = molecular target: T1, SIK3 (Homo sapiens, UniProt Q9Y2K2); assay: ADP-Glo kinase assay, SIK3; format: biochemical
T1 construct: purchased SignalChem S12-11G-100
How it was run: (§1)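 ADP-Glo format, luminescent. Room-temperature kinase reaction lasting 120 min, followed by ATP removal (40 min) and ADP detection (30 min); 10 μM staurosporine serves as full-inhibition control, 1% DMSO as uninhibited control.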

[1] = tested on: LPS-induced TNFα in monocytes; assay: Monocytes assay: LPS-triggered TNFα (ELISA); format: cell-based, human; conditions: Homo sapiens, Monocyte, LPS-triggered TNFα inhibition
Procedure: This assay evaluates illustrative compounds of the invention for their inhibition of LPS-induced TNFα and LPS triggered IL-10 secretion in monocytes.
PBMCs are isolated from human blood samples (buffycoats). The buffy coat is aseptically transferred into a 50 mL Falcon tube, and diluted 1/2 in PBS. Falcon tubes are filled with 20 mL Lymphoprep™, on top of which 25 mL of the buffy coat is carefully added, tubes are centrifuged for 35 min at 400 g in temperature controlled centrifuge, without brake, at 25° C. PBMCs are aspirated from the white interface layer between sample and Lymphoprep™. PBMCs are washed five times in PBS.
PBMCs are centrifuged at 300×g for 10 min and resuspended at a density of 1.0*10^7 cells/80 μL Miltenyi buffer (PBS, pH 7.4, 1% FBS, 2 mM EDTA).
Starting from this point of the protocol all steps are performed on ice. 20 μL of CD14+ micro-beads are added per 1.0*10^7 cells, the tube is mixed and incubated for 15 min in the fridge at 4° C. Cell suspension volume is adjusted to total volume of 100 mL using Miltenyi buffer, mixed gently and subsequently centrifuged for 10 min at 300×g. Supernatant is discarded and cell pellet is resuspended in 12 mL of Miltenyi buffer.
Four LS columns are placed in the MACS Separator (magnet) from Miltenyi Biotec, and are prewet by rinsing with 3 mL of MACS buffer per column. Three mL of cell suspension is added onto the column (max 1*10^8 of labelled cells/column), and columns are subsequently washed 3 times with 3 mL of Miltenyi buffer.
The columns are removed from the magnets, and 5 mL of Miltenyi buffer are added to the column to flush out the CD14+ fraction by pushing the plunger into the column. The flushed fractions are collected in a fresh 50 mL Falcon and volume is adjusted to 30 mL using Miltenyi buffer, cells are centrifuged for 10 min at 300×g. The obtained cell pellet is resuspended in 10 mL RPMI w/o FBS, and cell density is determined using a hematologic analyser (Sysmex XS-500i).
A compound dilution plate is made in 100% DMSO by 3-fold dilution of 10 mM stock solution. An intermediate dilution plate (10× final concentration) is made by diluting the compound dilution plate 50-fold in RPMI medium.
10 μL of the 10× final concentration compound is added to the cells and incubated for 1 h at 37° C. before addition of trigger. No trigger conditions/trigger conditions are spiked with equal final DMSO concentrations of 0.2% DMSO. 10 μL of 10×LPS (final conc. 200 ng/mL) solution are added to all wells except for the ‘no trigger wells’ where 10 μL medium is added. Supernatant is collected after 4 h of LPS triggering.
The plate is then washed once with PBST (PBS+0.05% Tween20) and once with PBS followed by the addition of 100 μL of blocking buffer (1% Bovine Serum Albumin (BSA)-5% Sucrose) and plates are sealed and incubated for at least 4 h at RT. After washing the plate once with PBST and once with PBS, […]. Plates are washed twice with PBST, and once with PBS, after which 35 μL of the detection antibody is added (final concentration 0.25 μg/mL diluted in dilution buffer) and plates are incubated for at least 2 h at RT. Plates are washed twice with PBST, and once with PBS, whereafter 35 μL of Strep-HRP conjugate (0.5 μg/mL final concentration diluted in dilution buffer) is added. Plates are incubated in the dark, at RT for at least 45 min but no longer than 1 h. Plates are washed twice with PBST, and once with PBS. Thereafter, 50 μL of luminol substrate is added to each well (prepared according to manufacturer's instructions), and incubated for 5 min at RT protected from light.
To measure the inhibition of LPS induced TNFα, percentage inhibition (PIN) values are calculated for all concentrations tested, compared to controls.

SIK1 = molecular target: T2, SIK1 (Homo sapiens, UniProt P57059); assay: ADP-Glo kinase assay, SIK1; format: biochemical
T2 construct: purchased Carna Biosciences 02-131
T2 sequence (P57059 whole entry): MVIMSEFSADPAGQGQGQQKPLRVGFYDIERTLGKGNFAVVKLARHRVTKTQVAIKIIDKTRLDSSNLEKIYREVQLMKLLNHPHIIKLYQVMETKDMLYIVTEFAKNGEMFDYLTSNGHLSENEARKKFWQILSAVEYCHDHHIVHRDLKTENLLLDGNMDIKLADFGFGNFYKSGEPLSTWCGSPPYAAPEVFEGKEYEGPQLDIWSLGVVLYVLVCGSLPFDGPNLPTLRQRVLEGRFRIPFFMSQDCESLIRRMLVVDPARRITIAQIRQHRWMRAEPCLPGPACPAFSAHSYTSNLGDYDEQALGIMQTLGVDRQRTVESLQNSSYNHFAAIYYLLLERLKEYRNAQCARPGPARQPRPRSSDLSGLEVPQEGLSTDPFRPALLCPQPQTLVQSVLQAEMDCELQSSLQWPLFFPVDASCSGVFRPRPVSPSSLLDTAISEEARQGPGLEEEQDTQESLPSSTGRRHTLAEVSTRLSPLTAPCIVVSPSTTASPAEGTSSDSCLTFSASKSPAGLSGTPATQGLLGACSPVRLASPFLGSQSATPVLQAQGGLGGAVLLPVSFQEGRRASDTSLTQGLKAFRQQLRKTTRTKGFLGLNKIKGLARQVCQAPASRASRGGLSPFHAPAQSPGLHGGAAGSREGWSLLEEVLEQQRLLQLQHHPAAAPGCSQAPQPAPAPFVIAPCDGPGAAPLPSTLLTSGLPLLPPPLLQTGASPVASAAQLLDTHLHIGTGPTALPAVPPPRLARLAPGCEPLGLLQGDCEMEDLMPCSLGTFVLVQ
How it was run: as §1

SIK2 = molecular target: T3, SIK2 (Homo sapiens, UniProt Q9H0K1); assay: ADP-Glo kinase assay, SIK2; format: biochemical
T3 construct: purchased ThermoFisher Scientific PV4792
T3 sequence (Q9H0K1 whole entry): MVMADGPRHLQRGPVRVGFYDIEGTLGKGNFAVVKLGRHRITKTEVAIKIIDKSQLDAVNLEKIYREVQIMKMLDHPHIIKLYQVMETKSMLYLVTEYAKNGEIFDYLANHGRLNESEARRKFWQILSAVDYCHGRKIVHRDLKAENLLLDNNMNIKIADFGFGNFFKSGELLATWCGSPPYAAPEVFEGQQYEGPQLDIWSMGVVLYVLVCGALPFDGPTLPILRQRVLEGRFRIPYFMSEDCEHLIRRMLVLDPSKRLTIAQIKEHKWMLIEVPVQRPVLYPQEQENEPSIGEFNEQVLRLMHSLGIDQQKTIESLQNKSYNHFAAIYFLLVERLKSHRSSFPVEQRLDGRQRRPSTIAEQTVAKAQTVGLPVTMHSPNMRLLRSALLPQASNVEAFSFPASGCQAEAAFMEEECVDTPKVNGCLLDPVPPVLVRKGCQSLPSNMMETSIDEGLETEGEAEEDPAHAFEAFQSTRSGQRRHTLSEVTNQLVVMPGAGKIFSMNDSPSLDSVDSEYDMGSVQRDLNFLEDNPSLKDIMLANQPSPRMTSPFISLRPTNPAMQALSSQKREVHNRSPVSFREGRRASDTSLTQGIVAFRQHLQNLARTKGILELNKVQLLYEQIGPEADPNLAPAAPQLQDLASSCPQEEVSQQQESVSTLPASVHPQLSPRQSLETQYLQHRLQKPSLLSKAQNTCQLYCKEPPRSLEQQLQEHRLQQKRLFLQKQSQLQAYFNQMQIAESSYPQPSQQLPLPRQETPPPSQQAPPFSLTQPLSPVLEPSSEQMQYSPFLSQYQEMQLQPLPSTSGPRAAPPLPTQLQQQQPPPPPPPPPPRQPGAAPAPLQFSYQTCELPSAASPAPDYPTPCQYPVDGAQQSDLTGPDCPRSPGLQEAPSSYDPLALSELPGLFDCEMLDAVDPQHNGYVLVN
How it was run: as §1

T1 sequence (Q9Y2K2 59-365 limits assumed): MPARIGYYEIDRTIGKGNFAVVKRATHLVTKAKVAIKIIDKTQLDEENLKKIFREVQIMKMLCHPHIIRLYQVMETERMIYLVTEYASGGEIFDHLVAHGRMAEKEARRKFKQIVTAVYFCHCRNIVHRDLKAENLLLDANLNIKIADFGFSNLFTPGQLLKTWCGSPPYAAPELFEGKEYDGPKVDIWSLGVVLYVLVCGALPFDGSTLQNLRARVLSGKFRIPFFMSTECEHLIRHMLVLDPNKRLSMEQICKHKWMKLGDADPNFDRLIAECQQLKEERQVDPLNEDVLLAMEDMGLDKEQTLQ

Row | SMILES | IC50 (SIK3) [nM] | EC50 [1] [nM] | IC50 (SIK1) [nM] | IC50 (SIK2) [nM]
1 | COc1cc(-c2cnc3cc(C(C)(C)C(C)O)ccn23)cc(OC)c1C(=O)NCC(F)(F)F (stereo not drawn) [Cpd 62, 4-[7-(2-hydroxy-1,1-dimethyl-propyl)imidazo[1,2-a]pyridin-3-yl]-2,6-dimethoxy-N-(2,2,2-trifluoroethyl)benzamide] | 10 to 100 | 1000 to 5000 | > 500 | > 500
2 | COc1cc(-c2cnc3cc(C4(C#N)CN(C)C4)ccn23)cc(OC(F)F)c1C(=O)NC1CC1 [Cpd 121, 4-[7-(3-cyano-1-methyl-azetidin-3-yl)imidazo[1,2-a]pyridin-3-yl]-N-cyclopropyl-2-(difluoromethoxy)-6-methoxy-benzamide] | 10 to 100 | 1000 to 5000 | > 500 | > 500
3 | COc1cc(-c2cnc3cc(C(C)N4CCOCC4)ccn23)cc(OC(F)F)c1C(=O)NC1CC1 (stereo not drawn) [Cpd 139, N-cyclopropyl-2-(difluoromethoxy)-6-methoxy-4-[7-(1-morpholinoethyl)imidazo[1,2-a]pyridin-3-yl]benzamide] | 10 to 100 | 1000 to 5000 | > 500 | > 500
4 | COc1cn2c(-c3cc(OC)c(C(=O)NC4CC4)c(OC(F)F)c3)cnc2cc1C1CCOCC1 [Cpd 167, N-cyclopropyl-2-(difluoromethoxy)-6-methoxy-4-(6-methoxy-7-tetrahydropyran-4-yl-imidazo[1,2-a]pyridin-3-yl)benzamide] | 10 to 100 | 1000 to 5000 | > 500 | 100 to 500
5 | COc1cc(-c2cnc3cc(C4CN(C(C)=O)C4)c(F)cn23)cc(OC(F)F)c1C(=O)NC1CC1 [Cpd 169, 4-[7-(1-acetylazetidin-3-yl)-6-fluoro-imidazo[1,2-a]pyridin-3-yl]-N-cyclopropyl-2-(difluoromethoxy)-6-methoxy-benzamide] | 10 to 100 | 1000 to 5000 | > 500 | 100 to 500
6 | COc1cc(-c2cnc3cc(C(C)(O)CN4CCOCC4)ccn23)cc(OC(F)F)c1C(=O)NC1CC1 (stereo not drawn) [Cpd 178, N-cyclopropyl-2-(difluoromethoxy)-4-[7-(1-hydroxy-1-methyl-2-morpholino-ethyl)imidazo[1,2-a]pyridin-3-yl]-6-methoxy-benzamide] | 10 to 100 | 100 to 1000 | > 500 | > 500
7 | COc1cc(-c2cnc3cc(C(C)(O)CC#N)ccn23)cc(OC(F)F)c1C(=O)NC1CC1 (stereo not drawn) [Cpd 179, 4-[7-(2-cyano-1-hydroxy-1-methyl-ethyl)imidazo[1,2-a]pyridin-3-yl]-N-cyclopropyl-2-(difluoromethoxy)-6-methoxy-benzamide] | 0.01 to 10 | 0.1 to 100 | 0.01 to 10 | 0.01 to 10
8 | COc1cc(-c2cnc3cc(C(C)(O)CN4CCCCC4)ccn23)cc(OC(F)F)c1C(=O)NC1CC1 (stereo not drawn) [Cpd 185, N-cyclopropyl-2-(difluoromethoxy)-4-[7-[1-hydroxy-1-methyl-2-(1-piperidyl)ethyl]imidazo[1,2-a]pyridin-3-yl]-6-methoxy-benzamide] | 10 to 100 | 100 to 1000 | > 500 | > 500
9 | COc1cc(-c2cnc3cc(C4CCCN4)ccn23)cc(OC(F)F)c1C(=O)NC1CC1 (stereo not drawn) [Cpd 188, N-cyclopropyl-2-(difluoromethoxy)-6-methoxy-4-(7-pyrrolidin-2-ylimidazo[1,2-a]pyridin-3-yl)benzamide] | 10 to 100 | 100 to 1000 | > 500 | 100 to 500
10 | COc1cc(-c2cnc3cc(C(C)(O)Cn4cccn4)ccn23)cc(OC(F)F)c1C(=O)NC1CC1 (stereo not drawn) [Cpd 192, N-cyclopropyl-2-(difluoromethoxy)-4-[7-(1-hydroxy-1-methyl-2-pyrazol-1-yl-ethyl)imidazo[1,2-a]pyridin-3-yl]-6-methoxy-benzamide] | 10 to 100 | 100 to 1000 | > 500 | > 500
11 | COc1cc(-c2cnc3cc(C4(OC)COC4)ccn23)cc(OC(F)F)c1C(=O)NC1CC1 [Cpd 212, N-cyclopropyl-2-(difluoromethoxy)-6-methoxy-4-[7-(3-methoxyoxetan-3-yl)imidazo[1,2-a]pyridin-3-yl]benzamide] | 10 to 100 | 100 to 1000 | > 500 | > 500
12 | COc1cc(-c2cnc3cc(C4(O)CCOC4)ccn23)cc(OC(F)F)c1C(=O)NC1CC1 (stereo not drawn) [Cpd 213, N-cyclopropyl-2-(difluoromethoxy)-4-[7-(3-hydroxytetrahydrofuran-3-yl)imidazo[1,2-a]pyridin-3-yl]-6-methoxy-benzamide] | 10 to 100 | 100 to 1000 | > 500 | > 500
13 | COc1cc(-c2cnc3cc(C(C)(C)C#N)c(OCCO)cn23)cc(OC(F)F)c1C(=O)NC1CC1 [Cpd 221, 4-[7-(1-cyano-1-methyl-ethyl)-6-(2-hydroxyethoxy)imidazo[1,2-a]pyridin-3-yl]-N-cyclopropyl-2-(difluoromethoxy)-6-methoxy-benzamide] | 10 to 100 | 100 to 1000 | > 500 | > 500
14 | COc1cc(-c2cnc3cc(C4(O)COC4)ccn23)cc(OC(F)F)c1C(=O)N[C@@H]1C[C@@H]1F [Cpd 223, 2-(difluoromethoxy)-N-[(1R,2S)-2-fluorocyclopropyl]-4-[7-(3-hydroxyoxetan-3-yl)imidazo[1,2-a]pyridin-3-yl]-6-methoxy-benzamide] | 10 to 100 | 100 to 1000 | > 500 | 100 to 500
15 | COc1cc(-c2cnc3cc(C(C)(C)C4CCO4)ccn23)cc(OC(F)F)c1C(=O)NC1CC1 (stereo not drawn) [Cpd 229, N-cyclopropyl-2-(difluoromethoxy)-6-methoxy-4-[7-[1-methyl-1-(oxetan-2-yl)ethyl]imidazo[1,2-a]pyridin-3-yl]benzamide] | 10 to 100 | 100 to 1000 | > 500 | > 500
16 | COc1cc(-c2cnn3cc(C(C)(C)c4nc(C)no4)ccc23)cc(OC(F)F)c1C(=O)NC1CC1 [Cpd 248, N-cyclopropyl-2-(difluoromethoxy)-6-methoxy-4-[6-[1-methyl-1-(3-methyl-1,2,4-oxadiazol-5-yl)ethyl]pyrazolo[1,5-a]pyridin-3-yl]benzamide] | 10 to 100 | 100 to 1000 | > 500 | > 500
17 | COc1cc(-c2cnn3cc(C4(C#N)CCC4)ccc23)cc(OC(F)F)c1C(=O)N[C@@H]1C[C@@H]1F [Cpd 250, 4-[6-(1-cyanocyclobutyl)pyrazolo[1,5-a]pyridin-3-yl]-2-(difluoromethoxy)-N-[(1R,2S)-2-fluorocyclopropyl]-6-methoxy-benzamide] | 0.01 to 10 | 100 to 1000 | > 500 | 100 to 500
18 | COc1cc(-c2cnn3cc(C(C)(C)COCC(=O)N(C)C)ccc23)cc(OC(F)F)c1C(=O)N[C@@H]1C[C@@H]1F [Cpd 251, 2-(difluoromethoxy)-4-[6-[2-[2-(dimethylamino)-2-oxo-ethoxy]-1,1-dimethyl-ethyl]pyrazolo[1,5-a]pyridin-3-yl]-N-[(1R,2S)-2-fluorocyclopropyl]-6-methoxy-benzamide] | 0.01 to 10 | 100 to 1000 | > 500 | > 500
